Assay results as given in US6509355B1, “Treatment of disorders of the outer retina” (Alcon Laboratories, Inc., priority 1998, dated 2003).

What was measured:
[1] = target: NR1A/NR2B subtype of the polyamine binding site of the NMDA receptor (Homo sapiens, UniProt Q05586+Q13224); conditions: cited from earlier work
[2] = tested on: light induced functional or morphological changes; assay: Light damage paradigms (light induced damage paradigm); conditions: in vivo
Procedure: Eliprodil was evaluated in our light induced damage paradigm, a model of retinal degenerative diseases such as retinitis pigmentosa and age-related macular degeneration.

[3] = tested on: photo-oxidative induced retinopathy; assay: Photo-oxidative induced retinopathy: 6-hour blue light exposure, ERG after 5-day recovery
From the text: Photic retinopathy results from excessive excitation of the retinal pigment epithelium and neuroretina by absorption of visible or near ultraviolet radiation. Lesion severity is dependent upon wavelength, irradiance, exposure duration, species, ocular pigmentation, and age. Damage may result from peroxidation of cellular membranes, inactivation of mitochondrial enzymes such as cytochrome oxidase, or increased intracellular calcium. Cellular damage resulting from photo-oxidative stress leads to cell death by apoptosis, (Shahinfar, S., Edward. D. P. and Tso, M. O. (1991), A pathologic study of photoreceptor cell death in retinal photic injury. Current Eye Research, 10:47-59: Abler, A. S., Chang, C. J., Fu, J. and Tso, M. O. (1994), Photic injury triggers apoptosis of photoreceptor cells. Investigative Ophthalmology & Visual Science, 35(Suppl):1517). Oxidative stress induced apoptosis has been implicated as a cause of many ocular pathologies, including, iatrogenic retinopathy, macular degeneration, retinitis pigmentosa and other forms of heredodegenerative disease, ischemic retinopathy, retinal tears, retinal detachment, glaucoma and retinal neovascularization (Chang, C. J., Lai, W. W., Edward, D. P. and Tso, M. O. (1995), Apoptotic photoreceptor cell death after traumatic retinal detachment in humans, Archives of Ophthalmology, 113:880-886: Portera-Cailliau, C., Sung, C. H., Nathans, J. and Adler, R. (1994), Apoptotic photoreceptor cell death in mouse models of retinitis pigmentosa, Proceedings of National Academy of Science (U.S.A.), 91:974-978; Buchi, E. R. (1992), Cell death in the rat retina after a pressure-induced ischaemia-reperfusion insult: an electron microscopic study. I. Ganglion cell layer and inner nuclear layer, Experimental Eye Research, 55:605-613; Quigley, H. A., Nickells. R. W., Kerrigan, L. A., Pease, M. E., Thibault, D. J. and Zack, D. J. (1995), Retinal ganglion cell death in experimental glaucoma and after axotomy occurs by apoptosis, Investigative Ophthalmology & Visual Science, 36:774-786). […] Alan R. Liss, Inc., New York; Collier, R., W. Waldron and Zigman, S. (1989), Temporal sequence of changes to the gray squirrel retina after near-UV exposure, Investigative Ophthalmology & Visual Science, 30:631-637), non-human primates (Tso, M. O. M. (1973), Photic maculopathy in rhesus monkey. A light and electron microscopic study. Investigative Ophthalmology & Visual Science, 12:17-34; Ham, W. T., Jr., Ruffolo, J. J., Jr., Mueller, H. A. and Guerry, D., III. (1980), The nature of retinal radiation damage: dependence on wavelength, power level and exposure time, Vision Research, 20:1105-1111; Sperling, H. G., Johnson, C. and Harwerth, R. S. (1980), Differential spectral photic damage to primate cones, Vision Research, 20:1117-1125: Sykes, S. M., Robison, W. G., Jr., Waxler, M. and Kuwabara, T. (1981), Damage to the monkey retina by broad spectrum fluorescent light, Investigative Ophthalmology & Visual Science, 20:425-434; Lawwill, T. (1982), Three major pathologic processes caused by light in the primate retina: A search for mechanisms, Transactions of the American Ophthalmology Society, 80:517-577), and man (Marshall, J. Hamilton, A. M. and Bird, A. C. (1975), Histopathology of ruby and argon laser lesions in monkey and human retina, British Journal of Ophthalmology, 59:610-630; Green, W. R. and Robertson, D. M. (1991), Pathologic findings of photic retinopathy in the human eye. American Journal of Ophthalmology, 112:520-27).

NMDA receptor = assay: Binding affinity to the NMDA receptor; conditions: order of magnitude only
retinal laser burn = assay: Retinal laser burn spread damage: argon laser, lesion area in outer nuclear layer after 48 hours; assay type: in vivo, Pigmented Long Evans rats
From the text: The eye is exposed to high-energy laser radiation during the performance of retinal photocoagulation therapy (grid, focal and […]) or during photodynamic therapy. This type of therapy is often employed during treatment of choroidal neovascularization, proliferative stages of diabetic retinopathy, retinopathy of prematurity, or to repair retinal holes or […]. Associated with this laser therapy is tissue destruction leading to vision deterioration. […] It is believed that this vision loss results directly from the expansion of the laser-induced lesion to surrounding normal neurosensory retina and RPE. Singlet oxygen and other reactive oxygen species as well as cytokines are generated in the area of the laser burn and thought to migrate laterally to cause collateral retinal damage. Retinal morphology changes in this area are similar to changes in our photo-oxidative retinopathy paradigm. […] Pigmented Long Evans rats were randomly assigned to control, vehicle or drug dosed groups. […] After a 48-hour recovery period, eyes were fixed, dehydrated, and embedded in plastic resin. Histological assessment of laser burns was performed by flatmounting the retina and sectioning the tissue in a plane tangential to the nerve fiber layer. Using this technique, the lesion area in the outer nuclear layer could be calculated using an image analysis system. […] The laser bum center was marked by; complete closure of all capillaries, arterioles and venuoles; perforation of Bruch's membrane; pyknosis and necrosis of all photoreceptor nuclei; and destruction of inner and outer segments. Spread of the lesion into peripheral retina consisted of shortening of outer segments, inner segment swelling, clumping of melanin granules in the RPE and choroid, and vacuolization of the RPE.

[4] = tested on: laser induced thermal burns to the retina; conditions: cited from earlier work
[5] = tested on: mechanical stress induced ischemia reperfusion; conditions: Arch Ophthal 1993; cited from earlier work

Chain of NR1A/NR2B subtype of the polyamine binding site of the NMDA receptor (Q13224 27-1484, other chains not shown): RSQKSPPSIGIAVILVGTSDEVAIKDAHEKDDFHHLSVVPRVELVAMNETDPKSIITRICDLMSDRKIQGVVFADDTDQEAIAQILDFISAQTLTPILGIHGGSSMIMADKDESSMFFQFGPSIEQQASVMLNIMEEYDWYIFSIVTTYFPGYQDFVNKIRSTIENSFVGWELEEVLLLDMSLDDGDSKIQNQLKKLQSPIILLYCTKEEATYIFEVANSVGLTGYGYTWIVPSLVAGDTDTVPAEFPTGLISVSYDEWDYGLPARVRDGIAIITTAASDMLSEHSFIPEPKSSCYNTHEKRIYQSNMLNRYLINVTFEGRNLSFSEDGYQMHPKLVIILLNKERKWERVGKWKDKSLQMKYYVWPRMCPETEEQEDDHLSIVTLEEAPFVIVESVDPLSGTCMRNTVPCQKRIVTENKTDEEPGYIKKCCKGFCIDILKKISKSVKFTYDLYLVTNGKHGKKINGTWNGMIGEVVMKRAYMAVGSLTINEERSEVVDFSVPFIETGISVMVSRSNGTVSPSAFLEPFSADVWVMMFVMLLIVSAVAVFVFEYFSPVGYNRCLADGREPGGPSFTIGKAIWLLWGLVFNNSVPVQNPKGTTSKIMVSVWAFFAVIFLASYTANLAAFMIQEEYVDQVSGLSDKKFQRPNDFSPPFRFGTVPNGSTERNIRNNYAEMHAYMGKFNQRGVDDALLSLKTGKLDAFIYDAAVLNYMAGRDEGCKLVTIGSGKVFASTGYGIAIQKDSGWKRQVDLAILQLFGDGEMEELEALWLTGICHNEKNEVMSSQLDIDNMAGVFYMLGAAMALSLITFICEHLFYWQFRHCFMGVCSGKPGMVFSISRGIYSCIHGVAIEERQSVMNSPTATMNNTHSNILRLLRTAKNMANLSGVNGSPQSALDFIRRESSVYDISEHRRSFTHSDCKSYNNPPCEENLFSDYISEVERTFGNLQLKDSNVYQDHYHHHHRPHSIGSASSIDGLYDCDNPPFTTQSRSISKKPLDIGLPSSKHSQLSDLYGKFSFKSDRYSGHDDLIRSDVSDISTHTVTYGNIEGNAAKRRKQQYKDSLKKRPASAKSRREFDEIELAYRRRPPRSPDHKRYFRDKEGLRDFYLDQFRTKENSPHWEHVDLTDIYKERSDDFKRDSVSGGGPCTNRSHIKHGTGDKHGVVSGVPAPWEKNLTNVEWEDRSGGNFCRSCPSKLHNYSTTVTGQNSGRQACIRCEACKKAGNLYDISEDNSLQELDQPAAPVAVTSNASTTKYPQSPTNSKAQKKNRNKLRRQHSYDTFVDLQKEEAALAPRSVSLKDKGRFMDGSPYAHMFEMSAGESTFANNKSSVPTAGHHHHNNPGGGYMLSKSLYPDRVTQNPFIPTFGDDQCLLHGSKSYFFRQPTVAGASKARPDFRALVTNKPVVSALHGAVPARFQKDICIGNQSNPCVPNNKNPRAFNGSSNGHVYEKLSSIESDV

C[C@@H]([C@@H](O)c1ccc(O)cc1)N1CCC(O)(c2ccccc2)CC1 [CP-101,606]
subtype preference of NMDA receptor block [1]: preferentially block

Cc1cccc(C)c1NC(=O)CN1CCN(CCCC(c2ccc(F)cc2)c2ccc(F)cc2)CC1 [lidoflazine]
preventing light induced functional or morphological changes [2]: no effect

N=C(N)NC(=O)c1nc(Cl)c(N)nc1N [amiloride]
preventing light induced functional or morphological changes [2]: no effect

O[C@H](CN1CCC(Cc2ccc(F)cc2)CC1)c1ccc(Cl)cc1 [S-eliprodil]
potency rank as retinoprotective agent in the series ([3]; rat, in vivo): most potent
potency relative to eliprodil (racemic) ([3]; rat, in vivo): two-fold more potent
difference in ERG response amplitude compared to vehicle dosed rats ([3]; rat, in vivo, ip, 5 mg/kg): No significant difference
Maximum a-wave response, % of normal ([3]; rat, in vivo, ip, 10 mg/kg): 64%
Maximum b-wave response, % of normal ([3]; rat, in vivo, ip, 10 mg/kg): 76%
protection of outer and inner retina function against light induced retinal degeneration ([3]; rat, in vivo, ip, 10 mg/kg): Significant protection
Response amplitudes, fold higher than vehicle dosed rats ([3]; rat, in vivo, ip, 20 mg/kg): about 2 fold
maximum a-wave response amplitude ([3]; rat, in vivo, ip, 20 mg/kg): 418.04 μV
maximum b-wave response amplitude ([3]; rat, in vivo, ip, 20 mg/kg): 1015.95 μV
protection of outer and inner retina function against light induced retinal degeneration ([3]; rat, in vivo, ip, 20 mg/kg): Significant protection
response amplitudes, % of normal ([3]; rat, in vivo, ip, 20 mg/kg): approximately 62%
binding affinity to the NMDA receptor (NMDA receptor): millimolar
Laser burn lesion area (retinal laser burn; 20 mg/kg IP): 43,098.5 μ^2
lesion area smaller than in vehicle dosed rats (retinal laser burn; 20 mg/kg IP): 15%
significance of lesion area difference from vehicle (retinal laser burn; 20 mg/kg IP): not significantly different
reduction of collateral retinal damage around the laser burn (summary) (retinal laser burn): devoid of significant efficacy

O[C@@H](CN1CCC(Cc2ccc(F)cc2)CC1)c1ccc(Cl)cc1 [R-eliprodil]
potency relative to eliprodil (racemic) ([3]; rat, in vivo): two-fold less potent
Maximum a-wave response, % of normal ([3]; rat, in vivo, ip, 20 mg/kg): 38%
Maximum b-wave response, % of normal ([3]; rat, in vivo, ip, 20 mg/kg): 36%
protection of outer and inner retina function against light induced retinal degeneration ([3]; rat, in vivo, ip, 20 mg/kg): No significant protection
Response amplitudes, fold higher than vehicle dosed rats ([3]; rat, in vivo, ip, 40 mg/kg): about 2 fold
maximum a-wave response amplitude ([3]; rat, in vivo, ip, 40 mg/kg): 397.25 μV
maximum b-wave response amplitude ([3]; rat, in vivo, ip, 40 mg/kg): 812.87 μV
protection of outer and inner retina function against light induced retinal degeneration ([3]; rat, in vivo, ip, 40 mg/kg): significant protection
response amplitudes, % of normal ([3]; rat, in vivo, ip, 40 mg/kg): ~50%
Maximum a- and b-wave responses, % of normal ([3]; rat, in vivo, ip, 80 mg/kg): approximately 40%
protection of outer and inner retina function against light induced retinal degeneration ([3]; rat, in vivo, ip, 80 mg/kg): No significant retinal protection
binding affinity to the NMDA receptor (NMDA receptor): nanomolar
lesion area smaller than in vehicle dosed rats (retinal laser burn; 20 mg/kg IP): 16%
significance of lesion area difference from vehicle (retinal laser burn; 20 mg/kg IP): not significantly different
Laser burn lesion area (retinal laser burn; 40 mg/kg IP): 36,016 μ^2
lesion area smaller than in vehicle dosed rats (retinal laser burn; 40 mg/kg IP): 28%
significance of lesion area difference from vehicle (retinal laser burn; 40 mg/kg IP): significantly diflerent
reduction of collateral retinal damage around the laser burn (summary) (retinal laser burn): significant reduction

C[C@]12N[C@H](Cc3ccccc31)c1ccccc12 [MK-801, reference compound]
prevention of photoreceptor loss ([4]; 3 and 20 days post laser exposure): did not significantly prevent
preventing the spread of laser induced thermal burns to the retina ([4]; at 60 days): minimally effective
dose dependence of protection of outer and inner retina function ([3]; Experiment 1): dose-dependent protection
protection of outer and inner retina function against light induced retinal degeneration ([3]; Experiment 1, 2 mg/kg IP, vs vehicle): No significant protection
protection of outer and inner retina function against light induced retinal degeneration ([3]; Experiment 1, 10 mg/kg IP, vs vehicle): No significant protection
ERG responses compared with control (normal) ([3]; Experiment 1, 20 mg/kg IP): not significantly different than control
protection of outer and inner retina function against light induced retinal degeneration ([3]; Experiment 1, 20 mg/kg IP at 48, 24, 0 h before light, vs vehicle): significant protection
maximum a-wave response amplitude ([3]; Experiment 1, 20 mg/kg IP, controls 734.05 μV): 537.93 μV
maximum b-wave response amplitude ([3]; Experiment 1, 20 mg/kg IP, controls 1807 μV): 1449.77 μV
rescue of RPE and photoreceptor cells (summary) ([3]; summary of Experiments 1 and 2): Complete protection

CC(C(O)c1ccc(O)cc1)N1CCC(Cc2ccccc2)CC1 (centres unmarked) [ifenprodil]
subtype preference of NMDA receptor block [1]: preferentially block

Fc1ccc(C(c2ccc(F)cc2)N2CCN(C/C=C/c3ccccc3)CC2)cc1 [flunarizine]
preventing light induced functional or morphological changes [2]: moderately effective

COC(=O)C1=C(C)NC(C)=C(C(=O)O[C@H]2CCN(Cc3ccccc3)C2)[C@H]1c1cccc([N+](=O)[O-])c1 [barnidipine]
preventing light induced functional or morphological changes [2]: no effect

Cc1c(C)c2c(c(C)c1O)CC[C@@](C)(CCC[C@H](C)CCC[C@H](C)CCCC(C)C)O2 [alpha-tocopherol]
preventing light induced functional or morphological changes [2]: ineffective

prenylamine lactate
preventing light induced functional or morphological changes [2]: no effect

CC12CC3CC(C)(C1)CC(N)(C3)C2 [memantine, reference compound]
dose dependence of protection of outer and inner retina function ([3]; rat, in vivo): dose-dependent protection
protection of outer and inner retina function against light induced retinal degeneration ([3]; rat, in vivo, ip, 2 mg/kg): no significant protection
ERG responses compared with control (normal) ([3]; rat, in vivo, ip, 20 mg/kg): significantly lower than normal
protection of outer and inner retina function against light induced retinal degeneration ([3]; rat, in vivo, ip, 20 mg/kg): significant protection

COCCOC(=O)C1=C(C)NC(C)=C(C(=O)OC(C)C)C1c1cccc([N+](=O)[O-])c1 (centres unmarked) [nimodipine]
preventing light induced functional or morphological changes [2]: no effect

COc1ccc2c(c1)[C@]13CCCC[C@@H]1[C@H](C2)N(C)CC3 [dextromethorphan]
protection of inner retina function and RPE function [5]: moderately protected
protective effect for outer retina function [5]: no significant protective effect
